Results as given in patent publication US4029805A, “Semisynthetic penicillins” (Hoffmann-La Roche Inc., priority 1976, dated 1977).
Structures can show the parent of a compound that is named as a salt. Where two headings read alike, the source gives them in different places.

Experiments:
D. pneumoniae = experiment: Curative dose against systemic D. pneumoniae infection; type: in vivo, mice; settings: Streptococcus pneumoniae, in Mus musculus, read-out: CD50 (the source's name)
E. coli [1] = experiment: Curative dose against systemic E. coli infection; type: in vivo, mice; settings: Escherichia coli, in Mus musculus, read-out: CD50 (the source's name)
S. schottmuelleri = experiment: Curative dose against systemic S. schottmuelleri infection; type: in vivo, mice; settings: Mus musculus, read-out: CD50 (the source's name)
physchem = type: physicochemical; settings: 5% dextrose solution, read-out: antibacterial activity retained in a 24 hour period
Method: The antibacterial activity retained in a 24 hour period by the acetaldehyde derivative when dissolved in 5% dextrose solutions at 0.5 and 1.0% concentration is 83% and 80% respectively. The sodium salt of amoxicillin retains less than 40% activity under the same conditions.

S. pyogenes = experiment: Curative dose against systemic S. pyogenes infection; type: in vivo, mice; settings: Streptococcus pyogenes, in Mus musculus, read-out: CD50 (the source's name)
S. typhosa [2] = experiment: Curative dose against systemic S. typhosa infection; type: in vivo, mice; settings: Mus musculus, sc, read-out: CD50 (the source's name)
S. aureus = experiment: Curative dose against systemic S. aureus infection; type: in vivo, mice; settings: Staphylococcus aureus, in Mus musculus, read-out: CD50 (the source's name)
K. pneumoniae = experiment: Curative dose against systemic K. pneumoniae infection; type: in vivo, mice; settings: Klebsiella pneumoniae, in Mus musculus, read-out: CD50 (the source's name)
[3] = Stability in aqueous solution at room temperature, microbiological assay using B. subtilis; settings: water
Method: To illustrate the relative stability of the compounds of this invention in aqueous solution at room temperature the sodium salts of the compounds were tested as 20% by weight aqueous solutions for activity by microbiological assay using B. subtilis as the test organism and compared to 10% and 20% aqueous solutions of amoxicillin sodium salt and 10% aqueous solution of the acetone derivative of amoxicillin.

S. typhosa [4] = experiment: Curative dose against systemic S. typhosa infection; type: in vivo, mice; settings: Mus musculus, po, read-out: CD50 (the source's name)
Method: (§1) In order to illustrate the relative activity of the compounds of this invention as compared to amoxicillin, the compounds, represented by the acetaldehyde derivative, were tested orally against systemic bacterial infections of mice with the following results. The CD50 is the curative dose in 50% of the animals treated against a challenge organism.

E. coli [5] = experiment: Curative dose against systemic E. coli infection; type: in vivo, mice; settings: Escherichia coli, in Mus musculus, po
Method: as §1

[6] = Table 3(b), po, acetaldehyde derivative comparison
[7] = Table 3(b), sc, acetaldehyde derivative comparison
[8] = Table 3(b), acetaldehyde derivative comparison
[9] = po, butyraldehyde derivative comparison
[10] = sc, butyraldehyde derivative comparison
[11] = butyraldehyde derivative comparison

With `CC1N[C@H](c2ccc(O)cc2)C(=O)N1[C@@H]1C(=O)N2[C@@H]1SC(C)(C)[C@@H]2C(=O)O` (stereo partly drawn) [Acetaldehyde derivative] as the compound, how does the ED50 (D. pneumoniae; [6]) read?
Its ED50 is 12 mg/kg.

And the ED50 (D. pneumoniae; [7])?
Its ED50 is 0.76 mg/kg.

And the ED50 (E. coli [1]; sc, Table 3(b), sc, acetaldehyde derivative comparison)?
Its ED50 is 6.9 mg/kg.

What about the ED50 (S. schottmuelleri; [6]) of the same compound?
Its ED50 is 6.4 mg/kg.

What about the ED50 (S. schottmuelleri; [7]) of the same compound?
Its ED50 is 3.4 mg/kg.

What about the remaining at 24 h (physchem; 0.5% concentration) of the same compound?
Its remaining at 24 h is 83%.

And the remaining at 24 h (physchem; 1.0% concentration)?
The remaining at 24 h was 80%.

And the LD50 (in vivo; ip)?
The LD50 was 9200 mg/kg.

And the LD50 (in vivo; po)?
The LD50 was over 10000 mg/kg.

And the LD50 (in vivo; sc)?
Its LD50 is over 10000 mg/kg.

What about the ED50 (S. pyogenes; [6]) of the same compound?
Its ED50 is 1.7 mg/kg.

What about the ED50 (S. pyogenes; [7]) of the same compound?
Its ED50 is under 0.05 mg/kg.

And the ED50 (S. typhosa [2]; [8])?
Its ED50 is 6.5 mg/kg.

And the ED50 (S. aureus; [6])?
Its ED50 is 0.77 mg/kg.

What about the ED50 (S. aureus; [7]) of the same compound?
Its ED50 is 1.3 mg/kg.

And the ED50 (K. pneumoniae; [6])?
Its ED50 is 17 mg/kg.

What about the ED50 (K. pneumoniae; [7]) of the same compound?
Its ED50 is 11 mg/kg.

What about the remaining at 1 h [3] of the same compound?
The remaining at 1 h was 100%.

What about the remaining at 2 h [3] of the same compound?
The remaining at 2 h was 99%.

What about the remaining at 4 h [3] of the same compound?
The remaining at 4 h was 99%.

What about the remaining at 6 h [3] of the same compound?
The remaining at 6 h was 98%.

What about the remaining at 6.5 h [3] of the same compound?
The remaining at 6.5 h was 98%.

And the remaining at 24 h [3]?
The remaining at 24 h was 94%.

And the ED50 (S. typhosa [4]; [8])?
Its ED50 is 8.8 mg/kg.

And the ED50 (E. coli [5]; Table 3(b), acetaldehyde derivative comparison, read-out: CD50 (the source's name))?
Its ED50 is 4.6 mg/kg.

What about the ED50 (E. coli [5]; read-out: CD50, Table 2, PO, mice) of the same compound?
Its ED50 is 5 mg/kg.

What does the source list for `CC1(C)S[C@@H]2[C@H](NC(=O)[C@H](N)c3ccc(O)cc3)C(=O)N2[C@H]1C(=O)O` [Amoxicillin sodium salt]?
remaining at 24 h (physchem; 5% dextrose solutions, same conditions (0.5 and 1.0%)): < 40%; remaining at 1 h [3]: 100%; remaining at 2 h [3]: 91%; remaining at 4 h [3]: 65%; remaining at 6 h [3]: 59%; remaining at 6.5 h [3]: 58%; remaining at 24 h [3]: 38%

With `CCCC1N[C@H](c2ccc(O)cc2)C(=O)N1[C@@H]1C(=O)N2[C@@H]1SC(C)(C)[C@@H]2C(=O)O` (stereo partly drawn) [Butyraldehyde derivative] as the compound, how does the ED50 (D. pneumoniae; [9]) read?
Its ED50 is 2.1 mg/kg.

And the ED50 (D. pneumoniae; [10])?
The ED50 was 2.5 mg/kg.

And the ED50 (E. coli [1]; [9])?
Its ED50 is 12 mg/kg.

And the ED50 (E. coli [1]; [10])?
Its ED50 is 3.9 mg/kg.

What about the ED50 (S. schottmuelleri; [9]) of the same compound?
Its ED50 is 5.7 mg/kg.

What about the ED50 (S. schottmuelleri; [10]) of the same compound?
Its ED50 is 3.2 mg/kg.

And the LD50 (in vivo; ip)?
The LD50 was 7270 mg/kg.

And the LD50 (in vivo; po)?
Its LD50 is over 10000 mg/kg.

And the LD50 (in vivo; sc)?
Its LD50 is 10000 mg/kg.

What about the ED50 (S. pyogenes; [9]) of the same compound?
Its ED50 is under 0.05 mg/kg.

And the ED50 (S. pyogenes; [10])?
Its ED50 is 0.01 mg/kg.

What about the ED50 (S. typhosa [2]; [11]) of the same compound?
The ED50 was 0.85 mg/kg.

What about the ED50 (S. aureus; [9]) of the same compound?
The ED50 was 0.2 mg/kg.

And the ED50 (S. aureus; [10])?
Its ED50 is 0.11 mg/kg.

And the ED50 (K. pneumoniae; [9])?
The ED50 was 46 mg/kg.

What about the ED50 (K. pneumoniae; [10]) of the same compound?
The ED50 was 16 mg/kg.

What about the remaining at 1 h [3] of the same compound?
The remaining at 1 h was 95%.

What about the remaining at 2 h [3] of the same compound?
The remaining at 2 h was 83%.

And the remaining at 6 h [3]?
The remaining at 6 h was 83%.

And the remaining at 24 h [3]?
Its remaining at 24 h is 70%.

And the ED50 (S. typhosa [4]; [11])?
The ED50 was 2.9 mg/kg.
